Source: US12409158B2, “Combination therapy for treating cancer” (GONGWIN BIOPHARM CO., LTD, priority 2022, dated 2025)

How the values were obtained:
H520 cells [1] = assay: H520 lung squamous cell carcinoma xenograft, repeat experiment; format: in vivo, nude-BALB/c mice; details: compared to control, FIGS. 13A, 13B
Experimental: (§1) Male nude-BALB/c mice at six-weeks of age were obtained from National Laboratory Animal Breeding and Research Center, Taipei, Taiwan. Mice were housed in each cage and provided them with sterile food and water. The mice were maintained under a constant temperature (22±2° C.) and relative humidity (55±5%), with a 12:12 h light: dark cycle. The Institutional Animal Care and Use Committee (IACUC) at the National […] University (IACUC Approval No. 110003) reviewed and approved the study protocol, in which procedures were in accordance with the Guidelines for the Care and Use of Laboratory Animals published by the Taiwanese Ministry of Health and Welfare. Human non-small cell lung carcinoma cell line (H520) was purchased from ATCC Cell Bank. H520 cells were incubated in RPMI 1640 medium (cat no. 61870044; Gibco; Thermo Fisher, Inc) supplemented with 10% fetal bovine serum in an environmental containing 5% CO2 at 37° C. The experimental treatments were commenced after the implanted H520 cells had formed a detectable tumor mass, which was assessed on day 7 after implantation. […] The growth of the tumors was assessed every seven days by measuring their largest and smallest diameters, and calculated their volume according to the following formula: […] […]

H520 cells [2] = assay: H520 lung squamous cell carcinoma xenograft, first experiment; format: in vivo, nude-BALB/c mice
Experimental: as §1

A549 cells = assay: A549 lung adenocarcinoma xenograft; format: in vivo, BALB/c nude mice
Experimental: A549 cell line was purchased from ATCC Cell Bank and was cultured in F-12K medium (cat no. ATCC 30-2004) plus 10% fetal bovine serum, at 37° C., 5% CO2. For experiments, cells were grown to 90% confluence. The experimental treatments were commenced after the implanted A549 cells had formed a detectable tumor mass, which was assessed on day 7 after implantation. Briefly, the mice were anesthetized via intraperitoneal injection of Zoletil (Virbac Taiwan, Taipei, Taiwan), and then subcutaneously injected 100 μl of cell suspension containing 6*10^6 viable A549 cells into right posterior leg. […] All treatments were administered via intraperitoneal injection (IP) or intratumoral injection (IT). The control group (Group 1) received normal saline daily, while the other three treatment groups received their corresponding treatments B.I.W (twice a week) or Q.W (once weekly). The PTS100 group (Group 2) received 330 mg/kg of PTS100 (Gongwin Biopharm Holding, Taipei, Taiwan). The normal saline+pemetrexed+Cisplatin group (Group 3) received 100 mg/kg of pemetrexed and 2 mg/kg of cisplatin. The pemetrexed+cisplatin+PTS100 (Group 4, also known as the “combination”) received 100 mg/kg of pemetrexed, 2 mg/kg of cisplatin, and 330 mg/kg of PTS 100. In group 4, when administering in combination, pemetrexed, cisplatin, PTS100 are given at different days, for example, PTS is given at Monday and Thursday, and pemetrexed+cisplatin is given at Wednesday. See Table 4 for the experimental design of the corresponding treatments, dose, injection site, concentration, volume, number of subjects and dosing frequency. The dosage of pemetrexed, cisplatin, and PTS100 were selected such that these drug affects apoptosis, invasion, metastasis, angiogenesis, and the growth signal mechanisms in […] implanted in mice. The growth of the tumors was assessed every seven days by measuring their largest and smallest diameters, and calculated their volume according to the following formula: […] [table]

In the case of Cc1ccc(S(N)(=O)=O)cc1 [PTS, p-Toluenesulfonamide], the “tumor volume / tumor burden” value (H520 cells [1]) is reported as “slight decrease”, the tumor growth inhibition (H520 cells [2]; PTS100 330 mg/kg IT B.I.W., gemcitabine 160 mg/kg and cisplatin 3 mg/kg IP QW) is reported as 39.2% and the “tumor volume / tumor burden” value (H520 cells [2]; compared to control, FIG. 12A) is reported as “slight decrease”. For the same compound, the “Inhibition (%) (tumor growth inhibition)” value (A549 cells; PTS100 330 mg/kg IT B.I.W., pemetrexed 100 mg/kg and cisplatin 2 mg/kg IP QW) was 84.13%, the “tumor volume / tumor burden” value (A549 cells; compared to control, FIG. 14A) was “slight decrease” and the tumor weight (A549 cells; compared to the control, FIG. 14B) was “significant decrease”.
